A melting point compilation (Tetko et al.; mined from patent text by program, amines drawn as free bases though some values may be those of a salt)

| melting point | Structure (SMILES) |
| --- | --- |
| 156 to 159 °C | Cn1c(-c2ccc(-c3ccccn3)cc2)c(C(=O)N2CCC(OCC(=O)O)CC2)c(=O)n1-c1ccc(C#N)cc1 |
| 222 to 223 °C | CC1(C)CC(=C(c2ccc(O)cc2)c2ccc(-c3ccc(CO)cc3)cc2)CC(C)(C)C1 |
| 204 to 206 °C | O=C(Nc1ccc(Cl)cc1)C(Oc1cccc2ccccc12)C1CC1 (stereo not drawn) |
| 184 to 185 °C | Cc1nn(-c2cc(Oc3ccc(C(=O)O)cc3)c(Cl)cc2F)c(=O)n1C(F)F |
| 116 to 118 °C | CCN[C@H]1CCC[C@H](Oc2ccc3[nH]ncc3c2)C1 (relative stereo) |
| 185 to 187 °C | COc1cc(C(=O)O)c2oc(-c3ccccc3)cc2c1 |
| 188 to 190 °C | COc1ccc(-c2cnc(S(C)(=O)=O)nc2)cc1OC1CCCC1 |
| 196 to 198 °C | Cc1cccc2c1C(=O)N(CO)S2(=O)=O |
| 216 to 220 °C | O=C(CC1CCNCC1)Nc1cccc(-c2ccnc3c(C(=O)c4cccs4)cnn23)c1 |
| 180 to 181 °C | Cn1cc(CS(C)=O)c(=O)c2ccc(Cl)cc21 (stereo not drawn) |
| 98 to 99 °C | Cc1c(C)c2c(c(C)c1NCc1ccccc1)C(=O)C(C)(C)O2 |
| 131 to 134 °C | COc1cc2c(c3c1OC(C)(C)C3)C(c1cccc(N)c1)=NC(C)(C)C2 |
| 155 to 162 °C | CCCc1c(O)ccc2c(=O)cc(C(=O)OCC)oc12 |
| 182 to 184 °C | C[C@H](NC(=O)c1c(CBr)c(-c2ccccc2)nc2ccccc12)C1CCCCC1 |
| 129 to 130 °C | O=C(NC(=O)N(SC(Cl)(Cl)Cl)c1ccc(C(F)(F)F)cc1)c1c(F)cccc1F |
| 236 to 237 °C | CS(=O)c1ccc(-c2nn(Cc3ccc(Cl)cc3Cl)c(=O)cc2-c2ccc(Cl)cc2)cc1 (stereo not drawn) |
| 155 to 156 °C | OC1CCN(c2ccncc2)CC1 |
| 253 to 254 °C | Cc1c(C(=O)O)c(CC(=O)O)n(C)c1C(=O)c1ccc(Cl)cc1 |
| 64 to 67 °C | COC(=O)c1ccc(C(=O)NC(C(=O)N2CCCC2C(=O)NC(C(C)C)C(O)C(F)(F)F)C(C)C)cc1 (mixture of isomers) |
| 250 to 270 °C | O=c1[nH]c2nc(C(F)(F)F)cc(C(F)(F)F)c2cc1-c1ccncc1 |
| 141 to 142 °C | CC(=O)Oc1cc2c(c3ccccc13)N(C(C)=O)c1ccccc1S2 |
| 124 to 127 °C | COP(=O)(OC)[C@H](C)NC(=O)[C@H](C)NC(=O)CNC(=O)CNC(=O)OCc1ccccc1 |
| 166 to 167 °C | CC(C)Cc1nn(C)c(=O)c2cn(Cc3cccc4ccccc34)nc12 |
| 270 to 272 °C | COc1ccc(Nc2nc3ccccc3c(=O)[nH]2)c(C)c1 |

| melting point | Structure (SMILES) |
| --- | --- |
| > 300 °C | O=C(O)c1cn(C2CC2)c2nc(N3Cc4ccc(CO)cc4C3)c(F)cc2c1=O |
| 212 to 213 °C | O=C(N[C@H](Cc1ccc(C(F)(F)F)c(F)c1)[C@@H](O)c1ccc(F)cc1)c1ccc(F)c2ccccc12 (racemic) |
| 123 °C | COC(=O)c1ccc(OC(=C(Oc2ccc(C(=O)OC)cc2)C(F)(F)F)C(F)(F)F)cc1 |
| 157 to 158 °C | N=c1cc(NC(=S)Nc2ccccc2)nc2n1CCCS2 |
| 45 to 52 °C | CS(=O)(=S)OCCCCCCCCCCOS(C)(=O)=S (stereo not drawn) |
| 243 to 244 °C | Nc1c(-c2ccc(Cl)cc2)nc2ccccc2c1C(=O)O |
| 84 °C | CCc1ccc2c(c1)C(O)(c1ccccn1)CC(C)(C)CO2 (stereo not drawn) |
| 168 to 170 °C | CC(C)(C)NS(=O)(=O)c1c(Cl)cccc1-c1ccccc1 |
| 207 to 208 °C | CCOC(=O)c1ccc(NC(=O)C=C(c2ccc(Br)cc2)c2ccc(Br)cc2)cc1 |
| 133 to 134 °C | Cc1cc2nc(Cl)c(Cl)nc2c([N+](=O)[O-])c1C |
| 236 to 237 °C | CC(C)(C)c1ccccc1N1CCN(C(=O)Cc2nnn[nH]2)CC1 |
| 145 to 148 °C | CC(=O)CCN(CCNC(=O)OC(C)(C)C)c1nc2cc(Cl)ccc2o1 |
| 174 to 175 °C | Cc1cc(OCC(=O)Nc2cc(C(=O)O)ccc2Cl)ccc1C(C)C |
| > 300 °C | Oc1nc2ccc(F)cc2nc1O |
| 165 °C | CO/N=C(/C)c1cccc(NC(=O)NCC(=O)N(CC(=O)N(C)c2ccccc2)c2ccccc2)c1 |
| 188 to 189 °C | Cc1c(NC(=O)CC(C)(C)C)cc2c(c1C)OC(C)(C)C2c1ccccc1C(C)C (stereo not drawn) |
| 64 to 65 °C | COC(=N)c1ccc(Br)cc1 |
| 89 to 92 °C | O=C(c1ccccc1)c1ccc(C(=O)N2Cc3ccccc3CCc3ccccc32)cc1 |
| 198 to 201 °C | O=C(NC(NC(=S)Nc1ccccc1)C(F)(F)F)c1ccc(Cl)cc1 (stereo not drawn) |
| 180 to 182 °C | O=c1cnc(-c2cc(Br)cc(-c3ccsc3)c2)nn1CC(F)(F)F |
| 176 to 177 °C | COc1cc2sc(C(=N)NO)cc2cc1OC(F)F |
| 128 °C | COc1ccc(-n2nnnc2CC(=O)C(F)(F)F)cc1C=O |
| 142 to 145 °C | CN1C(=O)C(c2cc[nH]c2)(c2cccc(O)c2)N=C1N (stereo not drawn) |
| 222 to 224 °C | O=C(c1cccc2cc[nH]c12)N1CCN(c2ccc(F)cc2)CC1 |

| melting point | Structure (SMILES) |
| --- | --- |
| 173 to 174 °C | Cn1cccc(Cc2cc3cccc(-c4cccc(C(=O)NCCO)c4)c3s2)c1=O |
| 54 to 77 °C | Cc1cc(N=C2NCCN2)cc(NS(C)(=O)=O)c1 |
| 202 to 203 °C | COC(=O)C(CCSC)NC(=O)c1ccc(NC(=O)Cc2cn(S(=O)(=O)c3ccc(C)cc3)cn2)cc1-c1ccccc1 (stereo not drawn) |
| 186 to 188 °C | N#Cc1cc([N+](=O)[O-])cc(O)c1O |
| 263 to 264 °C | CCOC(=O)Cc1ccc(Cc2n[nH]c3c2c(=O)n(-c2ccccc2)c2ncccc32)cc1 |
| 175 to 176 °C | CC1=C(C(=O)OCc2ccccc2)C2CCC(CCOC(=O)c3ccc(Br)cc3)N2C(=NC(=O)c2ccc(Br)cc2)N1 (stereo not drawn) |
| 184 to 185 °C | CC(C)(C)C(=O)C(Br)C(c1ccc(Cl)cc1Cl)S(=O)(=O)c1ccc(Cl)cc1 (stereo not drawn) |
| 249 to 250 °C | CC(=NNC(N)=O)c1ccc2nnn(Cc3ccc4ncccc4c3)c2n1 |
| 112 to 114 °C | COc1cccc(CC(O)C2CCN(CS(N)(=O)=O)CC2)c1OC (stereo not drawn) |
| 156 to 158 °C | COCc1cnc2c(NC(=O)c3c(Cl)cccc3Cl)cc(C)cc2c1Cl |
| 270 °C | Nc1cnc2c(F)c(Cl)c(F)cc2c1 |
| 118 to 120 °C | CC[C@H](COCCCc1ccccc1)n1cnc2c(N)nc3ccccc3c21 |
| 112 to 113 °C | COc1cc(N)ccc1OCCCN1CCN(c2ccccc2)CC1 |
| 202 to 204 °C | CCOc1cc2c(Cl)c(C#N)cnc2cc1NC(C)=O |
| 158 to 170 °C | CCCCC(OC(=O)c1ccccc1)P(=O)(O)OC(CCCCN)C(=O)N1CCCC1C(=O)O (stereo not drawn) |
| 140 to 142 °C | Cc1cccc(Nc2cc(Cl)nc(S(C)(=O)=O)n2)c1C |
| 36 to 40 °C | CCCCn1ccc(C=O)cc1=O |
| 131 to 135 °C | CC(C)NCC(O)COc1ccc(C2=NNC(=O)CC2)c2ccccc12 (stereo not drawn) |
| 131 °C | O=[N+]([O-])c1ccc(F)cc1CCN1CCN(c2nsc3ccccc23)CC1 |
| 125 to 127 °C | COc1cc(/C=C/c2ccc(C)cc2)cc(OC)c1OC |
| 192 to 193 °C | Cc1ccccc1-c1nc2c(s1)C(S(=O)(=O)Cc1ccccc1)Cc1c(OCC(=O)O)cccc1-2 (stereo not drawn) |
| 224 to 226 °C | COC(=O)CCC(=O)Nc1cccc2c1C(=O)N(C1CCC(=O)NC1=O)C2=O (stereo not drawn) |
| 129 to 137 °C | CCN(CC)OC(=O)c1cc(C(C)(C)C)c(O)c(C(C)(C)C)c1 |
| 92 to 92.5 °C | CC1=CN2CCS(=O)(=O)N=C2C(c2ccc(Oc3ccccc3)cc2)=N1 |

| melting point | Structure (SMILES) |
| --- | --- |
| 77 to 79 °C | CCOC(=O)c1c(C)cc2cnc(Cc3ccccc3)nc2c1C |
| > 400 °C | O=C(O)c1cc(I)cc2c(=O)c3ccccc3[nH]c12 |
| 176 to 179 °C | CCCNC(=O)NNC(=O)c1ccc(OC)cc1 |
| 64 to 67 °C | CC1CC(=O)c2cc([N+](=O)[O-])cnc2C1 (stereo not drawn) |
| 245 °C | Cc1ccnc(N2CCN(C3Sc4ccccc4NC3=O)CC2)c1 (stereo not drawn) |
| 169 to 170 °C | CCCSC(C)(C(=O)O)c1ccc2oc(Cc3nc(-c4ccccc4)oc3C)cc2c1 (stereo not drawn) |
| 122 to 124 °C | Cc1ccc(S(=O)(=O)Nc2ccc(SC#N)cc2)cc1 |
| 136 to 137 °C | Cc1oc(-c2ccccc2)nc1CC=Cc1ccc(CCCC2OC(=O)NC2=O)cc1 (stereo not drawn) |
| 223 to 235 °C | CC(C)(C)c1ccc(-n2c(CC(=O)O)c(C(=O)O)c3cc(Oc4ccc(C(=O)O)cn4)c(Cl)cc32)cc1 |
| 212 to 213 °C | COc1cc2ncnc(Nc3ccc(F)c(Cl)c3)c2cc1OCC1(C)COCOC1 |
| 229 °C | Nc1nc(O)cc(NC2CC2)n1 |
| 78 to 80 °C | CC(C)(C)C1=CC(C(F)(F)F)=CCC1(O)C(C)(C)C (stereo not drawn) |
| 90 to 91.5 °C | CC(C)(C)OC(=O)N1C[C@@H](S)C[C@@H]1CN(C(=O)OC(C)(C)C)S(N)(=O)=O |
| 168 to 172 °C | CC12CC(=O)C3C(CCC4CC(=O)CCC43C)C1CCC2C(=O)CCl (stereo not drawn) |
| 140 to 142 °C | Cc1c(C(=O)c2ccccc2)c(NC(=O)CNO)cn1C |
| 143 to 145 °C | CC(C(=O)O)c1cccc(Sc2ccccc2Cl)c1O (stereo not drawn) |
| 255 to 257 °C | CCOC(=O)c1cc2c3n(ccc-2n1)CC(c1ccccc1)=N3 |
| 152 °C | Oc1ccccc1CCCC1CCNCC1 |
| 127 °C | CC(C)(C)S(=O)(=O)NCc1cc(-c2ccc(Cl)c(Cl)c2)n(Cc2ccc(Cl)c(Cl)c2)n1 |
| 212 to 214 °C | O=C(Nc1ccc(C(F)(F)F)cc1)N1CC(c2ccccc2)C(c2ccc(Cl)cc2)N1 (stereo not drawn) |
| 75 °C | CC(C)OC1OC(=O)CC(C)(C)C1OS(C)(=O)=O (stereo not drawn) |
| 207 to 209 °C | CCOC(=O)c1cn(-c2nc(NC)c(F)cc2F)c2c(Cl)c(F)c(F)cc2c1=O |
| 165 to 167 °C | N#Cc1cnc2cc(I)ccc2c1Cl |

| Structure (SMILES) | melting point |
| --- | --- |
| Cc1[nH]c2ccccc2c1CSCCN1CC=C(c2ccccc2)CC1 | 182 °C |
| CCCCCC(C)C(C)c1cc(O)c2c(c1)OC(C)(C)C1=C2CN(CC(=O)N(C)C)CC1 (stereo not drawn) | 122 to 124 °C |
| CCOc1nc2nc(C(OC(C)=O)C3(Br)C(=O)N4C(C(=O)OCc5ccc([N+](=O)[O-])cc5)=CSC43)cn2c2c1CCC2 (stereo not drawn) | 119 °C |
